Test results reported in paper PMC8537327, “EGFR-Targeted Pentacyclic Triterpene Analogues for Glioma Therapy” (International Journal of Molecular Sciences, 2021).

Tests used:
[1] = test system: human peripheral blood mononuclear cells (PBMCs); assay: MTT cytotoxicity assay, PBMCs; type: cell-based; conditions: 72 h
Protocol: (§1) U251, T98G (Japanese Collection of Research Bioresources Cell Bank), and U87 human glioblastoma cell lines were incubated in Dulbecco’s Modified Eagle Medium (DMEM)/Ham’s F12 (Wako Pure Chemical Industries, Osaka, Japan), Eagle’s Minimum Essential Medium (EMEM; Wako Pure Chemical Industries, Osaka, Japan), and DMEM (Gibco/Thermo Fisher Scientific, Waltham, MA, USA) respectively, and supplemented with 10% fetal bovine serum (FBS; Sigma Aldrich, MO, USA). Jurkat human leukemic T-cell line was cultured in Roswell Park Memorial Institute (RPMI) 1640 (Wako Pure Chemical Industries, Osaka, Japan), supplemented with 10% FBS. PBMCs (Precision Bioservices, Frederick, MD, USA) were incubated in RPMI 1640 and supplemented with 10% human serum AB (HS) (Gemini, Woodland, CA, USA). All media were supplemented with 89 μg/mL streptomycin (Meiji Seika Pharma, Tokyo, Japan) at 37 °C in a humid atmosphere and 5% CO2. For each experiment, growing cells were plated at 4 × 10^4 cells/mL and 6 × 10^5 cells/mL into 24-well and 96-well microtiter tissue culture plates (Iwaki brand Asahi Glass Co., Chiba, Japan) respectively and incubated for 72 h before the addition of the drugs (the optimal cell number for cytotoxicity assays was determined in preliminary experiments). The stock solutions of the compounds and cisplatin (Sigma-Aldrich, St. Louis, MO, USA) in concentrations between 0.1–10 mM were prepared in dimethyl sulfoxide (DMSO; Wako Pure Chemical Industries, Osaka, Japan) and in H2O respectively, then were added to fresh culture medium. The concentration of DMSO and H2O in the final culture medium was 1% which had no effect on the cell viability.
(§2) The MTT (Dojindo Molecular Technologies, Kumamoto, Japan) assay was carried out using the U251, T98G, U87, Jurkat, and PBMC cells to determine the cytotoxicity of compounds 1–13 and cisplatin as previously described in the literature with small modifications. Treated cells were incubated with different concentrations (1–100 µM) of the compounds for 72 h at 37 °C in the CO2 incubator. About 100 µL (1.1 mg/mL) of MTT solution was added to each well and after further incubation for 4 h, formazan crystals formed. At the end of this period, the medium was removed and the formazan crystals were solubilized by the addition of 100 μL DMSO to each well. The absorbance was read on an Infinite M1000 plate reader (Tecan, Mannedorf, Switzerland) at a wavelength of 550 nm with background subtraction at 630 nm. All experiments were performed in triplicate and IC50 values were defined as the drug concentrations that reduced absorbance to 50% of control values.

[2] = test system: U251 human glioblastoma cells; assay: MTT cytotoxicity assay, U251 cells; type: cell-based; conditions: for IC50: MTT, 72 h; for anticancer activity against U251 cells: at 100 µM concentration
Protocol: as §1, §2

[3] = test system: T98G human glioblastoma cells; assay: MTT cytotoxicity assay, T98G cells; type: cell-based; conditions: for IC50: MTT, 72 h; for anticancer activity against T98G cells: at 100 µM concentration
Protocol: as §1, §2

[4] = test system: Jurkat human leukemic T-cells; assay: MTT cytotoxicity assay, Jurkat cells; type: cell-based; conditions: for IC50: MTT, 72 h; for SI (selectivity index): SI = IC50 for PBMCs/IC50 for Jurkat cells
Protocol: as §1, §2

[5] = test system: U87 human glioblastoma cells; assay: MTT cytotoxicity assay, U87 cells; type: cell-based; conditions: for IC50: MTT, 72 h; for anticancer activity against U87 cells: at 100 µM concentration
Protocol: as §1, §2

U251 cells = assay: Annexin V/ethidium homodimer III staining, apoptotic/necrotic cell detection; type: cell-based, human; conditions: 24 h; IC50 concentration (Figure 4 legend), 5 μM (method)
Protocol: U251 cells (4 × 10^4 cells/well) were seeded in each well of a 24-well plate with compound 10 and cisplatin at 5 μM concentration for 24 h. Then, the apoptotic/necrotic/healthy cells detection kit protocol was applied according to the manufacturer’s instructions (PromoKine, Heidelberg, Germany) with few modifications. Briefly, the cells were washed twice with 1 × binding buffer and then treated with FITC-Annexin V (5 μL), ethidium homodimer III (5 μL), and Hoechst 33342 (5 μL) for 20 min at room temperature in a protected-light environment. After washing in 1 × binding buffer, cells were analyzed under an all-in-one fluorescence microscope Biorevo Fluorescence BZ-9000 (Keyence, Osaka, Japan). Healthy cells, apoptotic cells, late apoptotic or necrotic cells, and necrotic cells were counted as previously described.

K562 CML cell line = test system: K562 CML cell line; parameters: method as in PMID 31574910; conditions: previously reported by the authors; read-out: IC50, cytotoxic activity against K562 CML cell line; cited from earlier work
ABL1 kinase = target: ABL1 kinase; parameters: method as in PMID 31574910; conditions: previously reported by the authors; read-out: ABL1 kinase inhibition IC50; cited from earlier work
K562 cells = test system: K562 cells; parameters: method as in PMID 31574910; conditions: previously reported by the authors; cited from earlier work
FYN A = target: T1, FYN A (Homo sapiens, UniProt P06241); assay: Kinase profiling assay (ADP-Glo), FYN A; type: biochemical; conditions: 30 µM concentration
T1 construct: purchased Promega Corporation
T1 sequence (P06241 whole entry): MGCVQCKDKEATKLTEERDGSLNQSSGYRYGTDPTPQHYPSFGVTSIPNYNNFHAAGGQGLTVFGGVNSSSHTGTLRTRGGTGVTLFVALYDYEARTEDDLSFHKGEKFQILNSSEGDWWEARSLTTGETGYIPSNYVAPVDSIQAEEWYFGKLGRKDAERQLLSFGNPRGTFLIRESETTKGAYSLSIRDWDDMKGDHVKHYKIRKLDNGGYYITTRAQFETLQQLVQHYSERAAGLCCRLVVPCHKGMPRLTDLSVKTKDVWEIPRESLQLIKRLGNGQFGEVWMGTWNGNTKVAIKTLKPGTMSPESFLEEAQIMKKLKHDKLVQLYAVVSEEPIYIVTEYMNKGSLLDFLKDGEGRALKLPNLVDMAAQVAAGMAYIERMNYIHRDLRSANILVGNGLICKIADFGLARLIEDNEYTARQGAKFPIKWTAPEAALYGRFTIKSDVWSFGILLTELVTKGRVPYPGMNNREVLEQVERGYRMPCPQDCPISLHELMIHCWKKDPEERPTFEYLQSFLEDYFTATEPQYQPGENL
Protocol: (§3) The kinase profiling assay protocol (TK1 and TK-2) was applied according to the manufacturer‘s instructions (Promega Corporation, Madison, WI, USA) with few modifications. In regard to this protocol, the EGFR, HER2, HER4, IGF1R, InsR, KDR, PDGFR-α, PDGFR-β, ABL1, BRK, BTK, CSK, FYN A, LCK, LYN B, and SRC kinase stocks in the kinase strips were diluted with 95 µL 2.5x kinase buffer and their substrate stock in the substrate strip was diluted with 15 µL of 100 µM ATP solutions. Then, the kinase reactions were performed using 2 µL of the kinase working stocks, 2 µL of the ATP/substrate working stocks, and 1 µL of compound solution (0.1–100 µM) or 5% DMSO solution in the 384-well plate. After 4 h of incubation at room temperature, the activity of kinases was detected using ADP-Glo Kinase Assay (Promega Corporation, Madison, WI, USA) according to the manufacturer‘s protocol. Briefly, 5 µL of ADP-Glo reagent was added into each well of 384-well plate and the mixture was incubated at room temperature for 40 min to stop the kinase reaction and deplete any ATP remaining. Then, 10 µL Kinase Detection Reagent was added and the mixture was incubated for a further 30 min to convert the kinase-produced ADP to ATP, and then to light. […]

ABL1 = target: T2, ABL1 (Homo sapiens, UniProt P00519); assay: Kinase profiling assay (ADP-Glo), ABL1; type: biochemical; conditions: 30 µM concentration
T2 construct: purchased Promega Corporation
T2 sequence (P00519 whole entry): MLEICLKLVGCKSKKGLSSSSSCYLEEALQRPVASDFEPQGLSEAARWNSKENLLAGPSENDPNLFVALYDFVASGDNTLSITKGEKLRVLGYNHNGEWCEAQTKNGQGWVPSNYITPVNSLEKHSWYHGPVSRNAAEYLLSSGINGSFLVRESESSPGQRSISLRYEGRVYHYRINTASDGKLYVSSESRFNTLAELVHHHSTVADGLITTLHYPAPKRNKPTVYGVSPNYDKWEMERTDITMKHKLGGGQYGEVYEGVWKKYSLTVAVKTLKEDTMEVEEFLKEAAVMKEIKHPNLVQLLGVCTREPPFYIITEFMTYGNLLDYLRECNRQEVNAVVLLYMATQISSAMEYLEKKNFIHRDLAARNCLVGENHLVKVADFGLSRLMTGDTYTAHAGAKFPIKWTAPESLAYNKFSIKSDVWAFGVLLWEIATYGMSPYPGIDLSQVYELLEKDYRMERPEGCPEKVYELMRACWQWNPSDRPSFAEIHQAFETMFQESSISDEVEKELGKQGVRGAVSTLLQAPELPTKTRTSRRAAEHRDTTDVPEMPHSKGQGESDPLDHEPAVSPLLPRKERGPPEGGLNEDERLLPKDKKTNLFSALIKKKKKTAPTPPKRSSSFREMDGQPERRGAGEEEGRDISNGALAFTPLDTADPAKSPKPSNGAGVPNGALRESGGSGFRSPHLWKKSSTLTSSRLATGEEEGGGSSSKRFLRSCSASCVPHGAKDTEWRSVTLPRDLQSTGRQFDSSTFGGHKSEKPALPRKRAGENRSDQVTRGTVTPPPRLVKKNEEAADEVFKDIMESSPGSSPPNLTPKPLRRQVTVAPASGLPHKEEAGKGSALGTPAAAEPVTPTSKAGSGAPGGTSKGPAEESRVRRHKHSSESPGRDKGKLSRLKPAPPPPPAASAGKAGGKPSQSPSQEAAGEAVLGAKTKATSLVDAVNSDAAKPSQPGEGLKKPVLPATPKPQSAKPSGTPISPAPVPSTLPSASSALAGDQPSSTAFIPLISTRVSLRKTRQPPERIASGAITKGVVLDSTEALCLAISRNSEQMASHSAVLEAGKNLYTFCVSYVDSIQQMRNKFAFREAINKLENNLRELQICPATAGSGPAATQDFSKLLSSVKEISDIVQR
Protocol: as §3

SRC = target: T3, SRC (Homo sapiens, UniProt P12931); assay: Kinase profiling assay (ADP-Glo), SRC; type: biochemical; conditions: 30 µM concentration
T3 construct: purchased Promega Corporation
T3 sequence (P12931 whole entry): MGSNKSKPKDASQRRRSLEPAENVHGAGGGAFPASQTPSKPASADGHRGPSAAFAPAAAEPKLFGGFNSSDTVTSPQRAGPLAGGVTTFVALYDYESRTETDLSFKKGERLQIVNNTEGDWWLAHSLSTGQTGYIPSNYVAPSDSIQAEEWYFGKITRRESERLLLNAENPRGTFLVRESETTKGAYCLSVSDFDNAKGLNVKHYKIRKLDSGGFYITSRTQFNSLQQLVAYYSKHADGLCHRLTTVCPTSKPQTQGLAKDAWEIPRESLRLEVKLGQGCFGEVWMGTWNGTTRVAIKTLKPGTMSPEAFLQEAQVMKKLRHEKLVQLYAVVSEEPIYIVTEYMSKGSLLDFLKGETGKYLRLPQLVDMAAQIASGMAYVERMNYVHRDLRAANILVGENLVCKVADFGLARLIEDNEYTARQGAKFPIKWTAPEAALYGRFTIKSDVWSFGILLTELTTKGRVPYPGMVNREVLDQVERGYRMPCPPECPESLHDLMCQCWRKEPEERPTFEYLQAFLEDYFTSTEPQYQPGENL
Protocol: as §3

BRK = target: T4, BRK (Homo sapiens, UniProt Q13882); assay: Kinase profiling assay (ADP-Glo), BRK; type: biochemical; conditions: 30 µM concentration
T4 construct: purchased Promega Corporation
T4 sequence (Q13882 whole entry): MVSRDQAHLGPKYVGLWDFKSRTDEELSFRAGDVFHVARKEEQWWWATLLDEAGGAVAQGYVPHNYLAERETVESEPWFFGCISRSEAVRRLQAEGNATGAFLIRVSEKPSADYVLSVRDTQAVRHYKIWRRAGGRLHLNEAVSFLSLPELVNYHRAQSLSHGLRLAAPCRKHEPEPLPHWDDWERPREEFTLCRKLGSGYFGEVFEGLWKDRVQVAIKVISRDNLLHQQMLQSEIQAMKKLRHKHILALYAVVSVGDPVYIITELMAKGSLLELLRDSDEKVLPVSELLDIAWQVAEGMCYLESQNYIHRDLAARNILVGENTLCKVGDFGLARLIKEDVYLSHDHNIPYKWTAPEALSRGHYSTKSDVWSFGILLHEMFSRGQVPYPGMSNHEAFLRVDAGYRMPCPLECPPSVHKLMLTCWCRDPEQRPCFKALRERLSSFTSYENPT
Protocol: as §3

LYN B = target: T5, LYN B (Homo sapiens, UniProt P07948); assay: Kinase profiling assay (ADP-Glo), LYN B; type: biochemical; conditions: 30 µM concentration
T5 construct: purchased Promega Corporation
Protocol: as §3

BTK = target: T6, BTK (Homo sapiens, UniProt Q06187); assay: Kinase profiling assay (ADP-Glo), BTK; type: biochemical; conditions: 30 µM concentration
T6 construct: purchased Promega Corporation
Protocol: as §3

HER2 = target: T7, HER2 (Homo sapiens, UniProt P04626); assay: Kinase profiling assay (ADP-Glo), HER2; type: biochemical; conditions: 30 µM concentration
T7 construct: purchased Promega Corporation
T7 sequence (P04626 23-1255): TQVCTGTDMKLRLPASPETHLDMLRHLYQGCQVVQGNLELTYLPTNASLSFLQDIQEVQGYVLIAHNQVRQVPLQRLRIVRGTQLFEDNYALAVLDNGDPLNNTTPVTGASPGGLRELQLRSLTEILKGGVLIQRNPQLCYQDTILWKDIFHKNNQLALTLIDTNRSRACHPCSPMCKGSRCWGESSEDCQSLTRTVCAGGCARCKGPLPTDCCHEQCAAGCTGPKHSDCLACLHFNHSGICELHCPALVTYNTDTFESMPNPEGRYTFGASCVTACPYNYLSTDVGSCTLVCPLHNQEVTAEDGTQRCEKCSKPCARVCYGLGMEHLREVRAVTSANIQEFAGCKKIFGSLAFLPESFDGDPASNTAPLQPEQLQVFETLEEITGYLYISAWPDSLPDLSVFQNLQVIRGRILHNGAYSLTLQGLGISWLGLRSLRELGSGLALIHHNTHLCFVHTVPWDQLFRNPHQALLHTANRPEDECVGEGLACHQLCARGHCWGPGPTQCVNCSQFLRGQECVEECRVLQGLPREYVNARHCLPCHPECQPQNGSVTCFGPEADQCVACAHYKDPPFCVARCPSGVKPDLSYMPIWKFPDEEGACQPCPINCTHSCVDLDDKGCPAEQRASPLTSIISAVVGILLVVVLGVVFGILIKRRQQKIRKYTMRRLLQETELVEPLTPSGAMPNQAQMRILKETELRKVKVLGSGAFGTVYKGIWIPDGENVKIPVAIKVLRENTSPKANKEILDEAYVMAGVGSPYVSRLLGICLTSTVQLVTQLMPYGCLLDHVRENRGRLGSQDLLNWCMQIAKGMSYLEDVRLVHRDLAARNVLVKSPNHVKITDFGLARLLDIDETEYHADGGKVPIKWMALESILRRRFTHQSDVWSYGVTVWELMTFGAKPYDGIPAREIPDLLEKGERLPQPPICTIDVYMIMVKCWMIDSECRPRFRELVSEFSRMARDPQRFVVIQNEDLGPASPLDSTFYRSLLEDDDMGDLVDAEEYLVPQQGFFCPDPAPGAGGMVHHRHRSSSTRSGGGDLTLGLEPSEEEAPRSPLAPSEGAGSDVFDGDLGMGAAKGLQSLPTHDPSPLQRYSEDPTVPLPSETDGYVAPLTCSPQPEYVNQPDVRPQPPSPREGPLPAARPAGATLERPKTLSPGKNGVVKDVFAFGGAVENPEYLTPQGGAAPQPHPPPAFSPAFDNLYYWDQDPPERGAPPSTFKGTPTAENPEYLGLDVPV
Protocol: as §3

HER4 = target: T8, HER4 (Homo sapiens, UniProt Q15303); assay: Kinase profiling assay (ADP-Glo), HER4; type: biochemical; conditions: 30 µM concentration
T8 construct: purchased Promega Corporation
Protocol: as §3

EGFR = target: T9, EGFR (Homo sapiens, UniProt P00533); assay: Kinase inhibition assay (ADP-Glo), EGFR; type: biochemical
T9 construct: purchased Promega Corporation
T9 sequence (P00533 25-1210): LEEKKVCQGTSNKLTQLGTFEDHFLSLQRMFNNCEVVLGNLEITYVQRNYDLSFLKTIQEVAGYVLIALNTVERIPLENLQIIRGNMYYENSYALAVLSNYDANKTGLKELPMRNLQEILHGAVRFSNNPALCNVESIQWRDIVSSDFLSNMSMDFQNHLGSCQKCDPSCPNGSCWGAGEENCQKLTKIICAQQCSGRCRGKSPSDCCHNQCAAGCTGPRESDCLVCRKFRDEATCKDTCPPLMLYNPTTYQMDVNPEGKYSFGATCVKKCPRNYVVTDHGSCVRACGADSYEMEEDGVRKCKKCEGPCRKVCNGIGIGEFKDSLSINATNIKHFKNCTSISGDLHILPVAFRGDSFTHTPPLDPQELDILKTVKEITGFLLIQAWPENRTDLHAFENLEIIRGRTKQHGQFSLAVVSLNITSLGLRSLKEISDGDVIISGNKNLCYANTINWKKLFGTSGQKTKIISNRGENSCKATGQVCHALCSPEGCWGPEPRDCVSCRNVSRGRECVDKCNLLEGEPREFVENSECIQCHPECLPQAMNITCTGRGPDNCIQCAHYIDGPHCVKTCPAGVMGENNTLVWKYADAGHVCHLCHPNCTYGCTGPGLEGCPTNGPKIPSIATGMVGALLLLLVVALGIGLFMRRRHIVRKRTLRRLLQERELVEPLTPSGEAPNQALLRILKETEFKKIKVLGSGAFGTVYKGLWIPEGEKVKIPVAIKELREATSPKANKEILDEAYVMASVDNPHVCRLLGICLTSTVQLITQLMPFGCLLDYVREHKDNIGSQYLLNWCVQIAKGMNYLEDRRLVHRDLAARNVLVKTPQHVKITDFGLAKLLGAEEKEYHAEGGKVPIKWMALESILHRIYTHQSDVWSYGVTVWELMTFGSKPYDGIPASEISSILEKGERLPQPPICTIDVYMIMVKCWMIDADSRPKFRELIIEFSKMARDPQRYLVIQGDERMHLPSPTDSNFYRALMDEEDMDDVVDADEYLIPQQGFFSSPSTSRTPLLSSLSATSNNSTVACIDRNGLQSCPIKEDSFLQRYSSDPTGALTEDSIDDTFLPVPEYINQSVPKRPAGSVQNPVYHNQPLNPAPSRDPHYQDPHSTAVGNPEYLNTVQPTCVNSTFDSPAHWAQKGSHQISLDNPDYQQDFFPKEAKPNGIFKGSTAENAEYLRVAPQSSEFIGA
Protocol: The kinase profiling assay protocol (TK1 and TK-2) was applied according to the manufacturer‘s instructions (Promega Corporation, Madison, WI, USA) with few modifications. In regard to this protocol, the EGFR, HER2, HER4, IGF1R, InsR, KDR, PDGFR-α, PDGFR-β, ABL1, BRK, BTK, CSK, FYN A, LCK, LYN B, and SRC kinase stocks in the kinase strips were diluted with 95 µL 2.5x kinase buffer and their substrate stock in the substrate strip was diluted with 15 µL of 100 µM ATP solutions. Then, the kinase reactions were performed using 2 µL of the kinase working stocks, 2 µL of the ATP/substrate working stocks, and 1 µL of compound solution (0.1–100 µM) or 5% DMSO solution in the 384-well plate. After 4 h of incubation at room temperature, the activity of kinases was detected using ADP-Glo Kinase Assay (Promega Corporation, Madison, WI, USA) according to the manufacturer‘s protocol. Briefly, 5 µL of ADP-Glo reagent was added into each well of 384-well plate and the mixture was incubated at room temperature for 40 min to stop the kinase reaction and deplete any ATP remaining. Then, 10 µL Kinase Detection Reagent was added and the mixture was incubated for a further 30 min to convert the kinase-produced ADP to ATP, and then to light.

IGF1R = target: T10, IGF1R (Homo sapiens, UniProt P08069); assay: Kinase profiling assay (ADP-Glo), IGF1R; type: biochemical; conditions: 30 µM concentration
T10 construct: purchased Promega Corporation
Protocol: as §3

| FYN A inhibition (FYN A) | ABL1 inhibition (ABL1) | HER2 inhibition (HER2) | Structure (SMILES) | SI (selectivity index) [4] | apoptosis in U251 cells (U251 cells) [%] | IC50 ([2]; Homo sapiens, U-251) [µM] | anticancer activity against U251 cells [2] | IC50 ([3]; Homo sapiens, T98G) [µM] | anticancer activity against T98G cells [3] | IC50 (K562 CML cell line) [µM] | IC50 ([5]; Homo sapiens, U-87 MG) [µM] | anticancer activity against U87 cells [5] | other results |
| --- | --- | --- | --- | --- | --- | --- | --- | --- | --- | --- | --- | --- | --- |
| – | – | – | N.N.[Cl][Pt][Cl] [Cisplatin, cisplatin, reference compound] | 7.12 | 13.83 | – | – | – | – | – | – | – | IC50 [1]: 34.7 ± 7.11 µM; IC50 [2]: 7.7 ± 2.81 µM; IC50 [3]: 16.9 ± 3.95 µM; IC50 [4]: 4.87 ± 2 µM; IC50 [5]: 20.9 ± 5.16 µM |
| – | – | – | CC1(C)CC[C@]2(C(=O)OCc3ccccc3)CC[C@]3(C)C(=CC[C@@H]4[C@@]5(C)CC[C@H](O)C(C)(C)[C@@H]5CC[C@]43C)[C@@H]2C1 [Compound 5] | – | – | > 100 | no significant anticancer activity | > 100 | no significant anticancer activity | 5.46 | > 100 | no significant anticancer activity | IC50 (ABL1 kinase): 1.44 µM |
| – | – | – | CC1(C)CC[C@]2(C(=O)OCc3cc(C(F)(F)F)cc(C(F)(F)F)c3)CC[C@]3(C)C(=CC[C@@H]4[C@@]5(C)CC[C@H](O)[C@@](C)(C=O)[C@@H]5CC[C@]43C)[C@@H]2C1 [Compound 8] | – | – | > 100 | no significant anticancer activity | > 100 | no significant anticancer activity | 4.78 | > 100 | no significant anticancer activity | apoptosis in K562 cells (K562 cells): 24% |
| – | – | – | CC1(C)CC[C@]2(C(=O)OCc3ccc(C#N)cc3)CC[C@]3(C)C(=CC[C@@H]4[C@@]5(C)CC[C@H](O)[C@@](C)(C=O)[C@@H]5CC[C@]43C)[C@@H]2C1 [Compound 9] | – | – | 14.1 ± 3.41 | – | 56.6 ± 6.08 | – | 3.19 | > 100 | – | – |
| moderate | moderate | moderate | C[C@@H](NCC1(C)C(O)CCC2(C)C1CCC1(C)C2CC=C2C3CC(C)(C)CCC3(C(=O)O)CCC21C)c1ccccc1 (stereo partly drawn) [Compound 10, 10-Hydroxy-2,2,6a,6b,9,12a-hexamethyl-9-[(((R)-1-phenylethyl)amino)methyl]-1,2,3,4,4a,5,6,6a,6b,7,8,8a,9,10,11,12,12a,12b,13,14b-icosahydropicene-4a-carboxylic acid] | 7.90 | 10.29 | 5.82 ± 1.66 | – | 8.19 ± 2.42 | – | – | 17 ± 4.92 | – | SRC inhibition (SRC): no significant inhibition; IC50 ([1]; Homo sapiens, PBMC): 28.1 ± 5.05 µM; BRK inhibition (BRK): no significant inhibition; melting point: 240 to 243 °C; LYN B inhibition (LYN B): no significant inhibition; BTK inhibition (BTK): no significant inhibition; HER4 inhibition (HER4): no significant inhibition; EGFR inhibition relative to InsR inhibition (EGFR; 30 µM concentration, stronger inhibition of EGFR than InsR): approximately 2 fold; IC50 (EGFR; ADP-Glo kinase assay): 9.43 µM; IC50 ([4]; Homo sapiens, Jurkat): 3.56 ± 1.45 µM; IGF1R inhibition (IGF1R): no significant inhibition |
| moderate | moderate | moderate | C#Cc1cccc(Nc2ncnc3cc(OCCOC)c(OCCOC)cc23)c1 [erlotinib, reference compound] | – | – | – | – | – | – | – | – | – | – |
